Assays:
[1] = tested on: mice, peritonitis induced by Zymosan A; test: Zymosan A peritonitis model (sepsis); assay type: in vivo; settings: preventive injection, vs isotype control
Experimental: FIG. 7. […] Preventive injection of anti-CMKLR1 was performed before Zymosan A injection (1 mg per mouse in 1 mL): RvE1 (1 μg per mouse) (•), 2G1 antibody (10 μg per mouse) ( ) or isotype control antibody (x). A. PMN numbered during the first 50 hours after Zymosan A injection. B. Macrophages numbered during the first 50 hours after Zymosan A injection. C. Resolution index.
Common peritonitis is induced by intraperitoneal injection of Zymosan A® (1 mg per mouse in 1 mL). Preventive injection of anti-CMKLR1 was performed 5 minutes before Zymosan A injection: RvE1 (1 μg per mouse), 2G1 antibody (10 μg per mouse). Murine peritoneal polymorphonuclear neutrophil (PMN) and macrophages were collected at 2-4-8-16-24 and 48 h after Zymosan A injection and numbered by flow cytometry analysis to determinate the resolution index (Bannenberg et al., 2005).

[2] = tested on: male C57BI/6 mice, Aldara-induced psoriasis; test: Imiquimod (Aldara)-induced psoriasis-like skin inflammation; assay type: in vivo; settings: 1 μg per mouse i.p. daily, vs control molecule
Experimental: FIG. 6. Effect of Resolvin E1 on an autoimmune disease such as mice psoriasis model. Aldara treated mice for 6 consecutive days were injected intra-peritoneally with: RvE1 (1 μg) (•) and PBS daily, and isotype control antibody (10 μg) (x) at day 0, 2 and 4. A. Ear thicknesses and B. skin thicknesses were measured daily until the recovery.
Aldara@ cream which is known to induce psoriasis in mice was used on male C57BI/6 mice (8-10-week old). Mice received a daily topical dose of Aldara on the shaved back and the left ear for 6 consecutive days. Treatments were injected intra-peritoneally: RvE1 (1 μg per mouse) and PBS daily. Ear (FIG. 6A) and back (FIG. 6B) thicknesses were measured daily until the recovery.

[3] = tested on: mice M1 or M2 macrophages; test: Cytokine secretion by mice M1 or M2 macrophages (ELISA), FIG. 15; assay type: cell-based; settings: FIG. 15; IL10, CCL17, IL12p40
Experimental: FIG. 15. Study of the inflammatory cytokine secretion by human macrophages during CMKLR1 activation. After differentiation of human macrophages M1 or M2, cells were incubated in presence of medium, isotype control, anti-CMKLR1 antibodies (H6 and BZ194), C15 peptides, 2G1 anti-CMKLR1 antibody or RvE1. Secretion of IL10, CCL17 and IL12p40 were assessed by ELISA. Cytokines secretion is measured in the supernatant by using an ELISA kit from BD. Supernatant were diluted at 1/10 for IL10 cytokines, 1/50 for CCL17 cytokines and 1/100 for IL12p40 cytokines. A. IL10 cytokine secretion by M2 cells. B. CCL17 cytokine secretion by M2 cells. C. represents IL 12 cytokine secretion by M1 cells.
Bone marrow cells were harvested and cultured in the RPMI medium supplemented with 10% FBS, glutamine and antibiotics containing macrophages colony-stimulating factor (M-CSF) at 100 ng/ml for 5 days inducing the macrophages differentiation. The macrophages were harvested and cultured for 2 days with either IFNg (20 ng/ml) and LPS (100 ng/ml) inducing the M1 polarization or with IL-4 (20 ng/ml) inducing the M2 polarization. Treatments were added during macrophage polarization at 2 μg/ml.
After differentiation of mice M1 or M2 as explain above, cells were incubated in presence of medium, isotype control, anti-CMKLR1 antibodies: clones H6 and BZ194, C15 peptides, 2G1 the anti-CMKLR1 antibody of interest or RvE1 were used. Then the secretion of IL10, CCL17 and IL12p40 was assessed by ELISA. Cytokines secretion was measured in the supernatant using an ELISA kit from BD. Supernatants were diluted at 1/10 for IL10 cytokines, 1/50 for CCL17 cytokines and 1/100 for IL12p40 cytokines.
Cytokines secretion was detected by ELISA according to the BD manufacturer instructions. Briefly, supernatants were diluted in the appropriate buffer and incubated for 2 hours after overnight coating with capture antibody and saturation. […] TMB supplied by BD Bioscience was used as substrate and colorimetric reaction was read with TECAN.

Mice dendritic cells = test: Maturation and differentiation of mice bone marrow derived dendritic cells, activation markers and viability by FACS; assay type: cell-based
Experimental: FIG. 1. Effect of the anti-CMKLR1 variants 1G1, 2G1, 3G1 and 4G1 chimeric antibodies on the DCs maturation and differentiation. Mice dendritic cells were incubated during maturation phase (24 h or 48 h) followed by a differentiation phase with excipient or RvE1 or anti-CMKLR1 antibodies variants (mutations on positions 1 and 2 of SEQ ID No. 8, corresponding to the VH-CDR3: 1G1 (LL), 2G1 (LI), 3G1 (IL) or 4G1 (II) or isotype controls (hIgG1 or mIgG)). Cells were then stained for FACS analysis with cell marker antibodies: A. CD80-PE; B. CD86-FITC; C. CD103-PerCPCy5.5; D. I/Ab-APC. Mean of Fluorescence was determined in each condition. E and F represent the viability of the cells measured by FACS using LIVE/DEAD® kit from Life Technologies in each condition after 24 or 48 hours of maturation respectively.
FIG. 17. Study of the myeloid cell activation markers after CMKLR1 pathway activation. Dendritic cells incubated in excipient, RvE1, 2G1 or isotype control (hIgG1) were then stained for FACS analysis with marker antibodies: A. CD80-PE. B. CD86-FITC. C. CD103-PerCPCy5.5. D. CD40-PeCy7. E. I/Ab-APC. Mean of Fluorescence was determined in each condition.
Bone marrow cells were harvested and cultured in RPMI medium supplemented with 10% FBS, glutamine and antibiotics and the dendritic cell differentiation was induced by GM-CSF at 20 ng/ml for 7 days. Then, immature dendritic cells (iDC) were collected and cultured for 24 hours with LPS (100 ng/ml) to induce the maturation from iDC to mDC. Treatments were added during differentiation and maturation at 2 μg/ml.
Dendritic cells were resuspended in PBS-FBS-EDTA and incubated with live and dead (LIVE/DEAD® Fixable Dead Cell Stains Yellow-Life Technologies) for 30 minutes on ice. Staining of CD11c-BV711, CD11b-APCCy7, I/Ab-APC, CD103-PerCPCy5.5, CCR7-V450, CD40-PeCy7, CD80-PE, CD86-FITC (all provided by BD Pharmingen) were performed.

[4] = tested on: C57BI/6 male mice, colitis induced by TNBS; test: Acute inflammatory colitis model induced by TNBS; assay type: in vivo; settings: FIG. 3, 2G1 10 μg, RvE1 1 μg per mouse i.p.
Experimental: FIG. 3. […] Mice received 200 μL of the haptenating agent TNBS at 5% in 50% ethanol on day 0 and then were injected with isotype control hIgG1 (10 μg per mouse) (x), RvE1 (1 μg per mouse) daily (•), or 2G1 antibody (10 μg per mouse) three times ( ) for 5 days, or non-treated (wild type animals) (▾). Mice were sacrificed colon length was measured in each condition.
Colitis was induced in 8-10 weeks-old-C57BI/6 male mice by intrarectal injection of 200 μL of the haptenating agent TNBS at 5% in 50% ethanol on day 0. Treatments were injected intra-peritoneally; RvE1 (1 μg per mouse) daily for three days, or 2G1 antibody (10 μg per mouse) twice for 3 days. Colitis follow-up consisting of body weight and stool score (0: normal stool; 4: blood in stool) parameters were performed daily (data not represented). When mice are euthanized, colon length representing the pathology severity was measured.

| Molecule | PMNs number ([1]; FIG. 7A) | macrophages number ([1]; FIG. 7B) | resolution index ([1]; FIG. 7C) | thickness of the ears ([2]; FIG. 6A) | thickness of the skin (back) ([2]; FIG. 6B) | inflammatory cytokines secreted by M1 or M2 macrophages, result compared with that of 2G1 [3] | expression of CD80, CD86, CD103, CD40 and IAb (DC activation markers) (Mice dendritic cells; FIG. 17, FACS, compared to the excipient or isotype control) | colon length [4] | DCs activation and/or maturation towards a pro-inflammatory pathway (Mice dendritic cells; FIG. 1, mice dendritic cells, maturation 24 h or 48 h) | viability of cells (Mice dendritic cells; FIGS. 1E and 1F, LIVE/DEAD kit, after 24 or 48 hours of maturation, compared with other antibodies, C7 or Resolvin E1) |
| --- | --- | --- | --- | --- | --- | --- | --- | --- | --- | --- |
| CC[C@@H](O)/C=C/C=C\C[C@@H](O)/C=C/C=C/C=C\[C@@H](O)CCCC(=O)O [RvE1, Resolvin E1, reference compound] | slightly less | slightly less | better resolution index | lower thickness | lower thickness | different | strong decrease | the same as normal animal (wt) | – | – |
| 1G1: anti-CMKLR1 chimeric antibody variant, LL on positions 1 and 2 of VH-CDR3 (SEQ ID No. 8) (antibody, V domains shown) VH: EVQLVASGGGLVQPGGSLKLSCAASGFTFSSYGMSWVRQTPDRRLELVATINRYGGSTYYPDSVKGRFTISRDNAKNTLYLQMSSLKSEDTAMYYCPRLLYYGNEGDSWGQGTTLTVSS VL: QIVLTQSPAIMSASPGEKVTMTCSASSSVSFMHWYQQKSGTSPKRWIYDTTKLTSGVPARFSGSGSGTFYSLTISSMEAEDAATYYCQQWNSKPPLTFGPGTKLELKR | – | – | – | – | – | – | – | – | inhibit DCs activation and/or maturation in a stronger manner than other synthetized antibodies (3G1 and 4G1) | enhanced |
